Results from ChEMBL document CHEMBL1201862, “PubChem BioAssay data set” (2004).
The source made the active and inactive calls.

Key:
[1] = target: Eukaryotic translation initiation factor 4E (Mus musculus, UniProt P63073); test: eIF4E–eIF4G protein interaction inhibitors, dose response, biochemical, TR-FRET (AID 855); assay type: functional;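 also: potency for disrupting eIF4E binding to eIF4GI seen as loss of FRET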
[2] = inhibitors of PGC1a acetylation in cells, dose response, cell-based, cherry-picked samples (AID 720514); assay type: functional;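 also: potency may reflect raised or lowered acetylation signal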
Prothrombin [3] = target: Prothrombin (Homo sapiens, UniProt P00734); test: Thrombin 1536 HTS Dose Response Confirmation. [Related pubchem assays: 1046 (Thrombin 1536 HTS; hits were confirmed in this assay)]; assay type: functional
Streptococcus = test: Group A Streptococcus viability loss, dose response, counter-screen for streptokinase expression inhibitor project, luminescence, BacTiterGlo (AID 1915); assay type: functional, organism-based;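 also: potency for reduction of bacterial viability or growth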
Streptokinase A = target: T1, Streptokinase A (Streptococcus pyogenes serotype M1, UniProt P10520); test: S. pyogenes streptokinase expression inhibitors, potency, dose response, plasminogen activation absorbance, OD405 (AID 1914); assay type: functional, Streptococcus pyogenes M1 GAS;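 also: secreted streptokinase activity via plasminogen activation per viability signal from cell pellet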
T1 sequence (P10520 whole entry): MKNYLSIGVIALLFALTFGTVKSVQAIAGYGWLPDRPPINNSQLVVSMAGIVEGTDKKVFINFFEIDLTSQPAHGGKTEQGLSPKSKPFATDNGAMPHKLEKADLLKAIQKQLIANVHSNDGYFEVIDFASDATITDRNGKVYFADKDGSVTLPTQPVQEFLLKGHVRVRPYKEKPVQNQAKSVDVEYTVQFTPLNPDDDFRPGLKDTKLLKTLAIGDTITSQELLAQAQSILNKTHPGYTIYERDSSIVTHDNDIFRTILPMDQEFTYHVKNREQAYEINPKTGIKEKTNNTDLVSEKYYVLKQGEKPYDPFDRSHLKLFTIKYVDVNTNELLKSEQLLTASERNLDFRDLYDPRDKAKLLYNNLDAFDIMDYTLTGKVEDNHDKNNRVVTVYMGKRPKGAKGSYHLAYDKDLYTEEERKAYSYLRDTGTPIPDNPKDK

[4] = tested on: Streptococcus sp. 'group A'; test: growth inhibition of control SK(-) GAS strain, dose response, counter-screen for streptokinase expression inhibitor project, luminescence, kanamycin, BacTiterGlo, confirmation (AID 1900); assay type: functional, organism-based
Procathepsin L = Procathepsin L (Homo sapiens, UniProt P07711)
Aspartyl aminopeptidase = target: T2, Aspartyl aminopeptidase (Plasmodium falciparum 3D7, UniProt Q8I2J3)
T2 sequence (Q8I2J3 whole entry): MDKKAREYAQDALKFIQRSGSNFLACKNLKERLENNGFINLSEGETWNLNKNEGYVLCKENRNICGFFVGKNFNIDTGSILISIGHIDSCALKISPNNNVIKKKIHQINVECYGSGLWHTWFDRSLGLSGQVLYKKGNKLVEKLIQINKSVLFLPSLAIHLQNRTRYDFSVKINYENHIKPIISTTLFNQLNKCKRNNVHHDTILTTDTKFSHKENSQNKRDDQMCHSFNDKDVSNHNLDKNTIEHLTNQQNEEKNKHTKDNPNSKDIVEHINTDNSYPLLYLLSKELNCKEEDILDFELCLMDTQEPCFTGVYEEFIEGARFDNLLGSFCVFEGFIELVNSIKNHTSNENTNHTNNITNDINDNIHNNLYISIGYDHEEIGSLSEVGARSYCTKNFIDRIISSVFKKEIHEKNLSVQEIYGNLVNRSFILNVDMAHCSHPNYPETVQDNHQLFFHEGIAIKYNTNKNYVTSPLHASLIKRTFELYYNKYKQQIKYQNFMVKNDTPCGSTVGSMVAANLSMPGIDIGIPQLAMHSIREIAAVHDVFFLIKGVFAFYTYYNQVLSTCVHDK

Prothrombin [5] = target: Prothrombin (Bos taurus, UniProt P00735); test: thrombin inhibition, dose response, biochemical, fluorescence polarization, uHTS hits (AID 602369); assay type: functional
[6] = target: 72 kDa type IV collagenase (Homo sapiens, UniProt P08253); test: Dose Response validation of uHTS RPN11 inhibitor hits using a MMP-2 Fluorescence assay.; assay type: functional
[7] = target: 26S proteasome non-ATPase regulatory subunit 14 (Homo sapiens, UniProt O00487); test: inhibition of proteasome subunit RPN11 – biochemical, fluorescence polarization, uHTS hits, confirmation (AID 602368); assay type: functional
[8] = cytotoxicity in HPDE-C7 cells, cell-based, fluorescence, HTS (AID 430); assay type: functional; conditions: Homo sapiens
[9] = cytotoxicity in KRAS-transformed pancreatic duct cells, primary screen, cell-based, fluorescence, HTS (AID 431); assay type: functional; conditions: Homo sapiens;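 also: cell line used: HPDE-C7K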
[10] = target: T3, High affinity choline transporter 1 (Homo sapiens, UniProt Q9GZV3); test: CHT inhibitors, dose response, cell-based, 5-point CRC, membrane potential dye (AID 504840); assay type: functional
T3 sequence (Q9GZV3 whole entry): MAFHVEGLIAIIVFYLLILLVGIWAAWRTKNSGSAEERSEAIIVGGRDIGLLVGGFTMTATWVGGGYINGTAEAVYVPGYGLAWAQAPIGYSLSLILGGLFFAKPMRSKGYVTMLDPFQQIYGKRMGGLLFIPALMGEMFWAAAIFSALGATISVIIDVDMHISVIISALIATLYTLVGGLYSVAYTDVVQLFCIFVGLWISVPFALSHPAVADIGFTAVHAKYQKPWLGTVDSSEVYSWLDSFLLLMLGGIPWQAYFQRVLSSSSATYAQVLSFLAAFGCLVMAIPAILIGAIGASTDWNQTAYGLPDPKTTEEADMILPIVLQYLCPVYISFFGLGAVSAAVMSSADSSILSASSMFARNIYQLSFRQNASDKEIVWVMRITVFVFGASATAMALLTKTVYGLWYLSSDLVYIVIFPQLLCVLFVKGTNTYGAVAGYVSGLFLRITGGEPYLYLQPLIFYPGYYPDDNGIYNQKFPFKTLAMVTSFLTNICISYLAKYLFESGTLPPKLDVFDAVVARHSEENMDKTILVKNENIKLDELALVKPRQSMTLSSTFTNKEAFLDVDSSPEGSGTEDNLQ

[11] = target: T4, RNA-binding protein pos-1 (Caenorhabditis elegans, UniProt G5EF15); test: inhibitors of POS-1/mex-3 RNA binding, dose response, biochemical, fluorescence polarization (AID 1964);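 also: purified POS-1 fused to maltose binding protein made in E. coli; potency of compounds blocking POS-1 binding to fluorescent RNA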
T4 sequence (G5EF15 whole entry): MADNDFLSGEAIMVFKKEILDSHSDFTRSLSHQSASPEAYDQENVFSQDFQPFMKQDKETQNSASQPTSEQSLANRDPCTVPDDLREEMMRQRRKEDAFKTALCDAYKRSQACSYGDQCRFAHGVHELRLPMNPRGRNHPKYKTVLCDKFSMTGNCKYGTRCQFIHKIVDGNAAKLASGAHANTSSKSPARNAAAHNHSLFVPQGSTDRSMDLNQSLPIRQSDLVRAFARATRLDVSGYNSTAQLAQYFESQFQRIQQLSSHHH

[12] = target: T5, Zinc finger protein mex-5 (Caenorhabditis elegans, UniProt Q9XUB2); test: MEX-5/TCR-2 RNA interaction inhibitors, dose response, biochemical, C. elegans, fluorescence polarization (AID 1960)
T5 sequence (Q9XUB2 whole entry): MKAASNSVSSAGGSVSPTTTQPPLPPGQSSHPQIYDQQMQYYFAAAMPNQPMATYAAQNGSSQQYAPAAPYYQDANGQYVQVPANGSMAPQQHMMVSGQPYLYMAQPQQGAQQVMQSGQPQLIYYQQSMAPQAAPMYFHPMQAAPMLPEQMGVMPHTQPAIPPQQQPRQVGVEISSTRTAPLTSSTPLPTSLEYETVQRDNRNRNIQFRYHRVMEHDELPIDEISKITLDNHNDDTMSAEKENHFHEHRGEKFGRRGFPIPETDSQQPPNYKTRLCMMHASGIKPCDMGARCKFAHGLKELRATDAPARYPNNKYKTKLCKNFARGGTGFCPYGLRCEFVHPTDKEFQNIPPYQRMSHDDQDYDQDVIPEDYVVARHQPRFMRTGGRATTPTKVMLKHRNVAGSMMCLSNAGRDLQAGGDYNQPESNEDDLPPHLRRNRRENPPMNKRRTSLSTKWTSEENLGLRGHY

[13] = target: T6, Carboxy-terminal domain RNA polymerase II polypeptide A small phosphatase 1 (Homo sapiens, UniProt Q9GZU7); test: inhibitors of CTDSP1, concentration-response testing, biochemical assay, absorbance-based, actives from ultra-high-throughput screening (AID 540297); assay type: functional
T6 sequence (Q9GZU7 whole entry): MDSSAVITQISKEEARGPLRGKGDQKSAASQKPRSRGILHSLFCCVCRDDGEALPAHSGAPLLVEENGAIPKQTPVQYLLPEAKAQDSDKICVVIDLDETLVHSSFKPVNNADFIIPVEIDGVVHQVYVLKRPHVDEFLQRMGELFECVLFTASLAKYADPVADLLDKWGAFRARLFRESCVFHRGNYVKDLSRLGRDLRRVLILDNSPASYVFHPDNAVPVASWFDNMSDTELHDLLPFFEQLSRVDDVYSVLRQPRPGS

[14] = inhibitors of Vif binding to APOBEC3G peptide, primary screen, biochemical, TR-FRET, GST-Vif 1-94, biotin-A3G peptide, dose response retest (AID 1117319); assay type: functional;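 also: TR-FRET signal of purified GST-Vif binding a biotinylated A3G peptide; inhibitors lower the FRET signal by blocking Vif and A3G binding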

Eukaryotic translation initiation factor 4E, sequence (P63073 whole entry): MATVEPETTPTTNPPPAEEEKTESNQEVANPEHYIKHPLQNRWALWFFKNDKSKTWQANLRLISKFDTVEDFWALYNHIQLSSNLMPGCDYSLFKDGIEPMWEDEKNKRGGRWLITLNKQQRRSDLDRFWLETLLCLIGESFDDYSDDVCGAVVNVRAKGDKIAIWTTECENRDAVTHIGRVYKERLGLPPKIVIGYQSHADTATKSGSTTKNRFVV
72 kDa type IV collagenase, sequence (P08253 whole entry): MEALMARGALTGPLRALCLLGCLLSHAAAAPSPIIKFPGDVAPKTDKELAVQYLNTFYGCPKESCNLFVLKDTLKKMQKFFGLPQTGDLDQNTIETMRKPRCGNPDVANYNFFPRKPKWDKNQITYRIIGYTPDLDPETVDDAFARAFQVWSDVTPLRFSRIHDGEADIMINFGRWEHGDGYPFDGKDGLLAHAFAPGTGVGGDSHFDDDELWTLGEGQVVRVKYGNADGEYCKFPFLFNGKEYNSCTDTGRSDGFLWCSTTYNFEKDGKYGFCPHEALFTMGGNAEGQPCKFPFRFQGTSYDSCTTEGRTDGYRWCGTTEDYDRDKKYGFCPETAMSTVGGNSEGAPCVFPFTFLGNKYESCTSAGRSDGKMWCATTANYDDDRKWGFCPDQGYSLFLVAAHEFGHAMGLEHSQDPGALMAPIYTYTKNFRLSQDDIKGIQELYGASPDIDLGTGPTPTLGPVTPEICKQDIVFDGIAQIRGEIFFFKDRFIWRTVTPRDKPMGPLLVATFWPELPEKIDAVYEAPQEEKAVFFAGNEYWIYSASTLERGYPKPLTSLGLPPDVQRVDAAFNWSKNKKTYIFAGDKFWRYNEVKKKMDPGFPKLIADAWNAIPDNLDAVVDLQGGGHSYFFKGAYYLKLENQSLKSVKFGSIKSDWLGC
Procathepsin L, sequence (P07711 whole entry): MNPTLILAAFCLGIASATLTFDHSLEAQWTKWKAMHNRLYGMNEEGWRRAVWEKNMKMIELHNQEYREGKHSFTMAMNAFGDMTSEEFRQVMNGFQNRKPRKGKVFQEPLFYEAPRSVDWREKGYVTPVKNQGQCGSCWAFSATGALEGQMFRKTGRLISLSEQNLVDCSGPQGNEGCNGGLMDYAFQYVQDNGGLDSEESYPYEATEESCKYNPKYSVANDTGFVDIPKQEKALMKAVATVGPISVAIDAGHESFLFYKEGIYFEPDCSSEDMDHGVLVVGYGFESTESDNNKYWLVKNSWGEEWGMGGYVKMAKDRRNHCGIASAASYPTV
26S proteasome non-ATPase regulatory subunit 14, sequence (O00487 whole entry): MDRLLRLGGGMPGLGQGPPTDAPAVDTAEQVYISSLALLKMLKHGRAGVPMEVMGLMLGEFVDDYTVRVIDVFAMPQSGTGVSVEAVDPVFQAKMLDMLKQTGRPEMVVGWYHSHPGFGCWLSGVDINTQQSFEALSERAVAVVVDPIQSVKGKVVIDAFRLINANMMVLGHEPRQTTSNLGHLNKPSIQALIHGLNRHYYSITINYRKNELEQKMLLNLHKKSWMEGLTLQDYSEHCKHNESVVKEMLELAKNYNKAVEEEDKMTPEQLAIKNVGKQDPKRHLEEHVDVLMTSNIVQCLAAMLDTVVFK

SMILES: O=C(Cc1ccccc1)OCn1nnc2ccccc2c1=O
- IC50 [1]: > 64 µM (inactive)

SMILES: Cc1noc(C)c1CSc1nnc(-c2cccnc2)n1C1CCCCC1C (stereo unspecified)
- AC50 [2]: 28.4 µM (active)

SMILES: O=C(Cn1cn[n+](CC(=O)c2ccc(Cl)cc2Cl)c1)c1ccc([N+](=O)[O-])cc1
- IC50 (Prothrombin [3]): 1.7 µM (active)
- EC50 (Streptococcus): > 150 µM (not active)
- EC50 (Streptokinase A): 21.4 µM (active)
- EC50 [4]: 11.3 µM (active)

SMILES: CC(=O)Nc1ccc(S(=O)(=O)NCCSc2ccccn2)cc1
- IC50 [1]: > 64 µM (inactive)

SMILES: Cc1nnc(NNS(=O)(=O)c2ccc(Cl)cc2)[nH]c1=O
- IC50 (Procathepsin L): > 59.6 µM (not active)
- IC50 (Aspartyl aminopeptidase): 1.57 µM (active)

SMILES: COc1ccc(C(=O)N2C(=S)NC(=O)/C2=C\c2ccc(C)cc2)cc1
- IC50 (Prothrombin [5]): 37.8 µM (active)
- IC50 [6]: 23.8 µM (active)
- IC50 [7]: 22.5 µM (active)

SMILES: CCOC(=O)c1ccc(/N=C/c2nc(-c3ccccc3)oc2OC(C)=O)cc1
- IC50 (Prothrombin [3]): 0.526 µM (active)

SMILES: COc1cc(CN2C[C@@H]3N[C@H](C2)[C@@H]3c2ccc(-c3ccccc3C)cc2)cc(OC)c1
- AC50 [2]: 6.84 µM (active)

SMILES: CCc1ccc(S(=O)(=O)NC(CC(=O)O)c2ccccc2)cc1 (stereo unspecified)
- EC50 [8]: > 20 µM (not active)
- EC50 [9]: > 20 µM (not active)

SMILES: Cc1c(NS(=O)(=O)c2ccc(Cl)c(C(=O)OCC(=O)NCc3ccco3)c2)c(=O)n(-c2ccccc2)n1C
- IC50 (Prothrombin [3]): > 50 µM (not active)

SMILES: CC1CN(C(=O)CCC(=O)NC(C)c2ccccc2)c2cc(Cl)ccc2O1 (stereo unspecified)
- IC50 [10]: 15.1 µM (active)

SMILES: Cc1ccc(/C=C(\C#N)C(=O)Nc2c(C)cccc2C)s1
- IC50 (Prothrombin [5]): 23.5 µM (active)
- IC50 [6]: > 100 µM (inactive)
- IC50 [7]: 13.5 µM (active)
- EC50 [11]: > 300 µM (not active)
- EC50 [12]: > 300 µM (not active)

SMILES: O=C(Nc1ccc(-c2nc3ccccc3s2)c(O)c1)C1=COCCO1
- IC50 (Prothrombin [5]): 91.4 µM (active)
- IC50 [6]: > 100 µM (inactive)
- IC50 [13]: 3.39 µM (active)
- IC50 [7]: 22.5 µM (active)

SMILES: CCOCCCn1c(C)nc2c(c1=O)c1nc3ccccc3nc1n2CCC1=CCCCC1
- EC50 [8]: > 20 µM (not active)
- EC50 [9]: > 20 µM (not active)

SMILES: COc1c(C)cc(C(=O)C2CCCN(S(=O)(=O)c3c(C)noc3C)C2)cc1C (stereo unspecified)
- IC50 (Prothrombin [3]): > 50 µM (not active)

SMILES: Cc1nc2ccccn2c1C(=O)NNC(=O)Nc1ccccc1
- IC50 (Procathepsin L): > 59.6 µM (not active)
- IC50 (Aspartyl aminopeptidase): 1.05 µM (active)

SMILES: Cc1c(OCC(N)=O)ccc2c(-c3ccccc3)cc(=O)oc12
- IC50 (Prothrombin [5]): 78.1 µM (active)
- IC50 [6]: 57.2 µM (active)
- IC50 [7]: 57.7 µM (active)

SMILES: O=S(=O)(Nn1cnnc1)c1ccccc1
- IC50 (Procathepsin L): > 59.6 µM (not active)
- IC50 (Aspartyl aminopeptidase): 3.81 µM (active)

SMILES: C=CCNc1nc2ccccc2nc1NS(=O)(=O)c1ccc(Br)cc1
- IC50 [10]: 13.2 µM (active)

SMILES: CN(CC(=O)Nc1ccc(Cl)cc1)C(=O)CCc1nc(O)c2c3c(sc2n1)CCCC3
- IC50 (Prothrombin [5]): 26.4 µM (active)
- IC50 [6]: > 100 µM (inactive)
- IC50 [7]: 30.7 µM (active)

SMILES: COc1ccc(NC(C)(C)c2nnnn2-c2c(C)cccc2C)cc1
- IC50 [10]: 25.1 µM (active)

SMILES: COC(=O)Nc1sc2c(c1C(=O)NCc1ccco1)CCCC2
- IC50 [14]: > 100 µM (active)

SMILES: COC(=O)c1ccccc1NC(=O)c1cc(-c2cccs2)on1
- EC50 [8]: > 20 µM (not active)
- EC50 [9]: > 20 µM (not active)

SMILES: C/C(=N/NC(=O)c1cc(Cl)ccc1O)C12CC3CC(CC(C3)C1)C2
- IC50 [10]: 8.58 µM (active)

SMILES: Cc1c(-n2cccc2C=O)cccc1[N+](=O)[O-]
- IC50 [1]: 50 µM (inactive)

SMILES: Cc1cc(C)nc(SCc2cc(=O)c(OC(=O)c3ccc(Br)o3)co2)n1
- IC50 [10]: 14.5 µM (active)

SMILES: O=C(Cc1ccc(Cl)cc1)OCc1nnc(-c2ccccc2)o1
- IC50 [1]: 50 µM (inactive)

SMILES: Cc1ccccc1CCNCc1cc2cccc(C)c2nc1O
- IC50 [10]: 10 µM (active)

SMILES: Cc1cc(C)nc(Nc2ccccc2Br)n1
- IC50 (Prothrombin [3]): > 50 µM (not active)
